Where a name gives a salt, the structure may show the parent alone.
Key:
[1] = biological target: αvβ6 (Homo sapiens, UniProt P06756+P18564); experiment: Solid Phase Integrin αvβ6 Assay; assay type: binding
In short: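 Inhibition of αvβ6 binding to immobilized recombinant TGFb1-LAP (1 μg/mL coating), 1 h at room temperature with 1 mM MnCl2 in BSA/TBST buffer, integrin diluted to 0.2 μg/mL before addition. Streptavidin-HRP/TMB read-out; four-parameter logistic fitting gave IC50.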

[2] = biological target: αvβ1 (Homo sapiens, UniProt P05556+P06756); experiment: Solid Phase Integrin αvβ1 Assay; assay type: binding
αvβ1, sequence (P06756 31-992 limits assumed): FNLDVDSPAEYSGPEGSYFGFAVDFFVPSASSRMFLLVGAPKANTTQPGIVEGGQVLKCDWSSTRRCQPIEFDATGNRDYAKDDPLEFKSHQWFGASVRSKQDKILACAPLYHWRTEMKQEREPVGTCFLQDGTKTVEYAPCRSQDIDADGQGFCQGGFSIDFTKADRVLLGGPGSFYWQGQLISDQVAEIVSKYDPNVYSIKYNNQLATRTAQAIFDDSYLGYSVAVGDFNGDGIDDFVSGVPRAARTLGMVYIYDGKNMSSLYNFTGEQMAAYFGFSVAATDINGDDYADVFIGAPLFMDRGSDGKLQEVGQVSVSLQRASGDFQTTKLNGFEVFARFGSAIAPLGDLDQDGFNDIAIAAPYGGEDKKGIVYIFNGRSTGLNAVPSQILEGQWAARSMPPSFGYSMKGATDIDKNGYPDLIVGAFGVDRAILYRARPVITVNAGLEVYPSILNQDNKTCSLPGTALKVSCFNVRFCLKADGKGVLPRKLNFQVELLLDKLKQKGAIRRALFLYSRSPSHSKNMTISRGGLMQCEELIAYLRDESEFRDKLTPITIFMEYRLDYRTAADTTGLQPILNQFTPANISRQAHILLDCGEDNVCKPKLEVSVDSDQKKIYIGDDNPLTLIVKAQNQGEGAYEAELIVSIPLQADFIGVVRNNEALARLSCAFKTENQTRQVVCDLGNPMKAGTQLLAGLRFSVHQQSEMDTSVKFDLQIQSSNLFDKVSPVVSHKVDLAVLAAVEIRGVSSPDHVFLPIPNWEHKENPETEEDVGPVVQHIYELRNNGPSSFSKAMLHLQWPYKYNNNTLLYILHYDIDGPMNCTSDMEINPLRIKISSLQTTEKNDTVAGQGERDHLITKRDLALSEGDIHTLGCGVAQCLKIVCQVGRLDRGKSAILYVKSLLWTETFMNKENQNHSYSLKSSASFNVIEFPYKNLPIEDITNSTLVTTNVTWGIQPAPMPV
αvβ1, sequence (P05556 21-728 limits assumed): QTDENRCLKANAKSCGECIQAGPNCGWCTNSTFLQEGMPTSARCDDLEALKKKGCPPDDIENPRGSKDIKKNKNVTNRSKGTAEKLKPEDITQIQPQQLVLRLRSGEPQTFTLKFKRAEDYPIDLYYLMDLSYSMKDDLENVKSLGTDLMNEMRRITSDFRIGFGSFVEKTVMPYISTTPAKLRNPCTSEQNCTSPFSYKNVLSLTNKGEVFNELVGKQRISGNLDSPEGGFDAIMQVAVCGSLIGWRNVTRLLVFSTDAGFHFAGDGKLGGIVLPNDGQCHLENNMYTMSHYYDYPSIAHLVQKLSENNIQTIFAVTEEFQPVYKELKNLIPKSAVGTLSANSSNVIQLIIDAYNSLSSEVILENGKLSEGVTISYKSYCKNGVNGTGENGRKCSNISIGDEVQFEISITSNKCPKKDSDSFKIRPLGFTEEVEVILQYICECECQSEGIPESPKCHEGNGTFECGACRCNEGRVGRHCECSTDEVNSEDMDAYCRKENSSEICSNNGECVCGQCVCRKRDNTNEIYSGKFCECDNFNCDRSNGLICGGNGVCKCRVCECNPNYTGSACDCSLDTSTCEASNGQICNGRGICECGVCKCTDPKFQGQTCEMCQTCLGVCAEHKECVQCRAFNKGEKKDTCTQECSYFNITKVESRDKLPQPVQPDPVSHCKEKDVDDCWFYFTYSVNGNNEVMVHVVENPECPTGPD
In short: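 Compound competes for αvβ1 binding to immobilized TGFb1-LAP (1 µg/mL coat) in Mn2+ (1 mM MnCl2), 2% BSA binding buffer over 90 min at room temperature, integrin added at 0.2 µg/mL. Read-out: streptavidin-HRP/TMB; IC50 from Levenberg-Marquardt four-parameter fit.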

αvβ6, sequence (P06756 31-992 limits assumed): as the sequence (P06756 31-992 limits assumed) above
αvβ6, sequence (P18564 22-707 limits assumed): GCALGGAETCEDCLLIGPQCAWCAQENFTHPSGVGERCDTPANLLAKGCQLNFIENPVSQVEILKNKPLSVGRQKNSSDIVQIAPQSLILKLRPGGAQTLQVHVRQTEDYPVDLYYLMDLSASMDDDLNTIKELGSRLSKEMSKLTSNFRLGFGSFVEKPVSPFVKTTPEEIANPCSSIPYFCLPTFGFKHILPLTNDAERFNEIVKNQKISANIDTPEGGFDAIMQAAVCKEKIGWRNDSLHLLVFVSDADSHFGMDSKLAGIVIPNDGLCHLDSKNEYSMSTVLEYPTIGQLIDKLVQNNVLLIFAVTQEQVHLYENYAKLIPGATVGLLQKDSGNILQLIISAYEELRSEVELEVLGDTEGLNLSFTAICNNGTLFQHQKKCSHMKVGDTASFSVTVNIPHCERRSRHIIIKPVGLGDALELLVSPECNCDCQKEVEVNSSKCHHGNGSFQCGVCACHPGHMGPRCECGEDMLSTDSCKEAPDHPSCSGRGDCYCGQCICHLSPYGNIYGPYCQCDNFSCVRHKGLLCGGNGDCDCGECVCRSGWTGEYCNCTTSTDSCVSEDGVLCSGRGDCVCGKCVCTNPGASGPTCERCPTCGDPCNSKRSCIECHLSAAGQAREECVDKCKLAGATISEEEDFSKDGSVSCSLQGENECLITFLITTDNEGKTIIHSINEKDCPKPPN

An IC50 [1] of less than 0.1 µM and an IC50 [2] of less than 0.1 µM were found for `O=C(O)C[C@H](NC(=O)[C@@H]1CCCN(CCCc2ccc3c(n2)NCCC3)C1)c1cccc(N2CCOCC2)c1` [Compound 229, (S)-3-(3-morpholinophenyl)-3-((R)-1-(3-(5,6,7,8-tetrahydro-1,8-naphthyridin-2-yl)propyl)piperidine-3-carboxamido)propanoic acid hydrochloride] in this work.
An IC50 [1] of less than 0.1 µM and an IC50 [2] of less than 0.1 µM were found for `O=C(N[C@@H](CNC(=O)[C@@H]1CCCN(CCCc2ccc3c(n2)NCCC3)C1)C(=O)O)C1CC2CCC1CC2` (some centres unmarked) [Compound 338] in this work.
An IC50 [1] of less than 0.1 µM and an IC50 [2] of less than 0.1 µM were found for `O=C(NC[C@H](Nc1cc(C(F)(F)F)ncn1)C(=O)O)[C@@H]1CCCN(CCCc2ccc3c(n2)NCCC3)C1` [Compound 283, (2S)-3-[[(3R)-1-[3-(5,6,7,8-tetrahydro-1,8-naphthyridin-2-yl)propyl]piperidine-3-carbonyl]amino]-2-[[6-(trifluoromethyl)pyrimidin-4-yl]amino]propanoic acid] in this work.
An IC50 [1] of less than 0.1 µM and an IC50 [2] of less than 0.1 µM were found for `O=C(NC[C@H](NS(=O)(=O)c1ccccc1)C(=O)O)[C@@H]1CCCN(CCCc2ccc3c(n2)NCCC3)C1` [Compound 272, (S)-2-(phenylsulfonamido)-3-((R)-1-(3-(5,6,7,8-tetrahydro-1,8-naphthyridin-2-yl)propyl)piperidine-3-carboxamido)propanoic acid] in this work.
An IC50 [1] of less than 0.1 µM and an IC50 [2] of less than 0.1 µM were found for `O=C(NC[C@H](Nc1ncnc2c(C(F)(F)F)cccc12)C(=O)O)[C@@H]1CCCN(CCCc2ccc3c(n2)NCCC3)C1` [Compound 562] in this work.
An IC50 [1] of less than 0.1 µM and an IC50 [2] of less than 0.1 µM were found for `O=C(Nc1ccccc1)N[C@@H](CNC(=O)[C@@H]1CCCN(CCCc2ccc3c(n2)NCCC3)C1)C(=O)O` [Compound 567] in this work.
An IC50 [1] of less than 0.1 µM and an IC50 [2] of less than 0.1 µM were found for `O=C(O)C[C@H](NC(=O)[C@@H]1CCCN(CCCc2ccc3c(n2)NCCC3)C1)c1cccc([C@@H]2CCOC2)c1` [Compound 533] in this work.
An IC50 [1] greater than 1 µM and an IC50 [2] of 0.1 to 1 µM were found for `C[C@H]1C[C@@H](C(=O)NC[C@@H](C(=O)O)c2ccc3ccccc3c2)CN(CCCc2ccc3c(n2)NCCC3)C1` [Compound 645] in this work.
An IC50 [1] of less than 0.1 µM and an IC50 [2] of less than 0.1 µM were found for `O=C(O)CC(NC(=O)[C@@H]1CCCN(CCCc2ccc3c(n2)NCCC3)C1)c1cccc2ccccc12` (some centres unmarked) [Compound 339] in this work.
An IC50 [1] of less than 0.1 µM and an IC50 [2] of less than 0.1 µM were found for `O=C(N[C@@H](CCO[C@@H]1CCCN(CCCc2ccc3c(n2)NCCC3)C1)C(=O)O)c1c(F)cccc1F` [Compound 468] in this work.
An IC50 [1] greater than 1 µM and an IC50 [2] greater than 1 µM were found for `O=C(O)[C@@H](CCO[C@@H]1CCCN(Cc2ccc3c(n2)NCCC3)C1)Nc1ncnc2ccccc12` [Compound 407] in this work.
An IC50 [1] greater than 1 µM and an IC50 [2] of 0.1 to 1 µM were found for `O=C(NC[C@@H](C(=O)O)c1ccccc1C1CC1)[C@@H]1CCCN(CCCc2ccc3c(n2)NCCC3)C1` [Compound 260-B, 2-(2-cyclopropylphenyl)-3-((R)-1-(3-(5,6,7,8-tetrahydro-1,8-naphthyridin-2-yl)propyl)piperidine-3-carboxamido)propanoic acid] in this work.
An IC50 [1] of less than 0.1 µM and an IC50 [2] of less than 0.1 µM were found for `C[C@@H]1OCCN(c2cccc([C@H](CC(=O)O)NC(=O)[C@@H]3CCCN(CCCc4ccc5c(n4)NCCC5)C3)c2)[C@@H]1C` [Compound 583] in this work.
An IC50 [1] of less than 0.1 µM and an IC50 [2] of 0.1 to 1 µM were found for `O=C(O)[C@H](CO[C@@H]1CCCN(CCCCc2ccc3c(n2)NCCC3)C1)NC(=O)C12CCC(CC1)CC2` [Compound 402] in this work.
An IC50 [1] of less than 0.1 µM and an IC50 [2] of less than 0.1 µM were found for `O=C(CC[C@H](NC(=O)C12CCC(CC1)CC2)C(=O)O)N[C@H]1CCN(CCCCc2ccc3c(n2)NCCC3)C1` [Compound 430] in this work.
An IC50 [1] of less than 0.1 µM and an IC50 [2] of less than 0.1 µM were found for `O=C(N[C@@H](CNC(=O)[C@@H]1CCCN(CCCc2ccc3c(n2)NCCC3)C1)C(=O)O)C1CC2CCC1CC2` (stereo partly drawn) [Compound 285, (2S)-2-(bicyclo[22.2]octane-2-carboxamido)-3-((R)-1-(3-(5,6,7,8-tetrahydro-1,8-naphthyridin-2-yl)propyl)piperidine-3-carboxamido)propanoic acid] in this work.

Reference: patent US20240208968A1, “ALPHA V BETA 6 AND ALPHA V BETA 1 INTEGRIN INHIBITORS AND USES THEREOF” (DiCE Molecules SV, Inc., priority 2021, published 2024)
